53 compounds from ChEMBL document CHEMBL5512657, “Design, synthesis and evaluation of a pyrazolo[3,4-d]pyrimidine derivative as a novel and potent TGFβ1R1 inhibitor” (Eur J Med Chem, 2024) can be followed below.

The target in data set [1] is T1, TGF-beta receptor type-1 (Mus musculus, UniProt Q64729).
T1 sequence (Q64729 whole entry): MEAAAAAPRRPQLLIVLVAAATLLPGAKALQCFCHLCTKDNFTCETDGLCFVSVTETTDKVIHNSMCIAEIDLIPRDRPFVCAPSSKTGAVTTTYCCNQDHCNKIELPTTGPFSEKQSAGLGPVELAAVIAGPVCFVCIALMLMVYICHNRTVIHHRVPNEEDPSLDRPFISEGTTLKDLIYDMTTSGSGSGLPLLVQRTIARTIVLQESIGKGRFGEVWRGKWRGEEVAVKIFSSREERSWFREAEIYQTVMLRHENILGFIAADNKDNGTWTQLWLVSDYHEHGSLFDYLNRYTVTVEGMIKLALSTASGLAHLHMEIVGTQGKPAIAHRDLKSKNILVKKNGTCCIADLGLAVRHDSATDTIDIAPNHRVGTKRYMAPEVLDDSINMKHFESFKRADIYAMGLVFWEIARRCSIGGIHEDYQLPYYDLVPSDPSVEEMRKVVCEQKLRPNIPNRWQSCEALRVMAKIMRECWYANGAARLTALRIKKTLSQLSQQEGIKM
Put plainly: Inhibition of ALK5 signaling in mouse NIH3T3 cells transfected with (CAGA)12-luciferase reporter incubated for 18 hrs in presence of TGF-beta1 by dual-luciferase reporter assay. Format: cell-based.

The target in data set [2] is Voltage-gated inwardly rectifying potassium channel KCNH2 (Homo sapiens, UniProt Q12809). The data set is described as follows: Inhibition of human ERG stably expressed in HEK293 cells by manual patch clamp method. Format: toxicity, cell-based.
Data set [3] addresses T2, TGF-beta receptor type-1 (Homo sapiens, UniProt P36897).
T2 sequence (P36897 whole entry): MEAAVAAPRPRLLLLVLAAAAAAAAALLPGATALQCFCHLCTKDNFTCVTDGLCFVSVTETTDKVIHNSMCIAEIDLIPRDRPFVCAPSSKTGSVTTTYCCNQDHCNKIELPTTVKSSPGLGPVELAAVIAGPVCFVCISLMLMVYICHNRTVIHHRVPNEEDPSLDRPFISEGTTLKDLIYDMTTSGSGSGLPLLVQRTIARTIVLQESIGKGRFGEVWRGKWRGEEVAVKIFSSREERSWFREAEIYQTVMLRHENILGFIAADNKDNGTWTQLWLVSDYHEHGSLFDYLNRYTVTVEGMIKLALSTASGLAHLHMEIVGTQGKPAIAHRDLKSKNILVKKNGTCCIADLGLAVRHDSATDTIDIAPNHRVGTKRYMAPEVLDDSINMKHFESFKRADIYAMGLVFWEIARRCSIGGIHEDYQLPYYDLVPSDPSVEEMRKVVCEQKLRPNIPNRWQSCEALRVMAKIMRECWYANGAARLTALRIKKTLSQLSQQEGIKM
Put plainly: Inhibition of TGFbetaR1 (unknown origin).

Data set [4] addresses T2, TGF-beta receptor type-1. The data set is described as follows: Inhibition of ALK5 (unknown origin) incubated for 2 hrs in presence of ATP by ADP-Glo reagent based luminescence plate reader analysis.
The subject of the next data set is Panc02. Put plainly: cells. The conditions noted are these: Mus musculus, Panc02, 72 h.
The subject of another data set is PANC-1. The data set is described as follows: cells. The conditions noted are these: Homo sapiens, PANC-1, 72 h.
A further data set has as its system 4T1. Put plainly: cells. The conditions noted are these: Mus musculus, 4T1, 72 h.
Another data set concerns MDA-MB-231. Put plainly: cells. The note with it: Homo sapiens, MDA-MB-231, 72 h.
A further data set relates to HepG2. Put plainly: cells. The conditions noted are these: Homo sapiens, HepG2, 72 h.
For another data set, the system named is U-251. Put plainly: cells. The conditions noted are these: Homo sapiens, U-251, 72 h.
In another data set the test system is Kasumi 1. The data set is described as follows: cells. The conditions noted are these: Homo sapiens, Kasumi 1, 72 h.
The next data set has as its system MV4-11. Put plainly: cells. The note with it: Homo sapiens, MV4-11, 72 h.
A short description of data set [5]: in vitro. The conditions noted are these: human, MCF-10A cells.
The nature of data set [6]: in vitro. The note with it: human, BEAS-2B cells.
Data set [7] in a line: in vitro. The conditions noted are these: human, HEK293T cells.
Data set [8] is described as follows: in vitro. The conditions noted are these: human, L02 cells.

Some results are limits rather than exact numbers.

Sequence of Voltage-gated inwardly rectifying potassium channel KCNH2 (Q12809 whole entry): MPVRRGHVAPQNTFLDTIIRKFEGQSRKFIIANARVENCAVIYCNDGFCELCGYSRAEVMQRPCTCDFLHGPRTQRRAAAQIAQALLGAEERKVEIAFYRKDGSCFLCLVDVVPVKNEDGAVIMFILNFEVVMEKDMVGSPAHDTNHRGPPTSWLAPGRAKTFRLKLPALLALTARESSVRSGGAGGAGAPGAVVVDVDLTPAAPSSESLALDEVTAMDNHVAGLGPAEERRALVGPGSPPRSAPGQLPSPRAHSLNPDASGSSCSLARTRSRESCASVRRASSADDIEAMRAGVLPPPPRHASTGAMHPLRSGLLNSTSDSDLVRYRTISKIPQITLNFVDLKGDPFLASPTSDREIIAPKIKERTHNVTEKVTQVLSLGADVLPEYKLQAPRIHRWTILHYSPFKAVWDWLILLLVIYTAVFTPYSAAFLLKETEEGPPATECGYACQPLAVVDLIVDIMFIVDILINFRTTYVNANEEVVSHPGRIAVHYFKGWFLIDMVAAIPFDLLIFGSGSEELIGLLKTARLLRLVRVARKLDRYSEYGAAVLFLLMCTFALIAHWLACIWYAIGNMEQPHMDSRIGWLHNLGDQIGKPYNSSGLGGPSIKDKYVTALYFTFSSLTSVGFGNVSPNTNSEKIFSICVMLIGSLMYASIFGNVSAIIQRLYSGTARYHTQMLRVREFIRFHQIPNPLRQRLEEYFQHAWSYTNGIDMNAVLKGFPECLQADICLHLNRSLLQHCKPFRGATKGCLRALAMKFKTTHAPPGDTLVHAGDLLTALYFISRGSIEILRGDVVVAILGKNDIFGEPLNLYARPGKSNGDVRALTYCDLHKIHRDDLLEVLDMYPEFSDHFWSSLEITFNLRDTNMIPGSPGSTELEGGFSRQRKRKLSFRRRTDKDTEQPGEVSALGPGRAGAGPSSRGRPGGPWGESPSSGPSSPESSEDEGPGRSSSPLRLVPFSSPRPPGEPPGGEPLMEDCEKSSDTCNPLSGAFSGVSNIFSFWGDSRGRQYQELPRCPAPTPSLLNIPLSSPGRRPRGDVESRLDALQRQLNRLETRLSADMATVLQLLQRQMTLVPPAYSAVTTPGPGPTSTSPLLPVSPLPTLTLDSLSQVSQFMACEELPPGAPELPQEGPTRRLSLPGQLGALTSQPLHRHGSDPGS

Consider `Nc1ncnc2c1c(-c1ccc3[nH]ccc3c1)nn2CCC1CCN(S(=O)(=O)c2cccs2)CC1`, for which, at TGF-beta receptor type-1 [1], the EC50 was 607 nM.
On the same count and under the same terms, for `CC(=O)N1CCC(CCn2nc(-c3ccc4c(c3)OCO4)c3c(N)ncnc32)CC1` the value was greater than 1000 nM; for `Nc1ncnc2c1c(-c1ccc3[nH]ccc3c1)nn2CCC1CCNCC1`, greater than 1000 nM; for `CC(C)S(=O)(=O)N1CCC(CCn2nc(-c3ccc4[nH]ccc4c3)c3c(N)ncnc32)CC1`, 131 nM.
On the same count and under the same terms, in the case of `N#Cc1ccc(S(=O)(=O)N2CCC(CCn3nc(-c4ccc5[nH]ccc5c4)c4c(N)ncnc43)CC2)cc1` it was greater than 1000 nM.
Consider `CCS(=O)(=O)N1CCC(CCn2nc(-c3ccc4[nH]ccc4c3)c3c(N)ncnc32)CC1`, for which, at TGF-beta receptor type-1 [1], the EC50 was 90.8 nM.
In the case of `CCCCS(=O)(=O)N1CCC(CCn2nc(-c3ccc4[nH]ccc4c3)c3c(N)ncnc32)CC1`, the EC50 on TGF-beta receptor type-1 [1] was found to be 176 nM.
With `CC(C)(C)OC(=O)N1CCCC(Cn2nc(-c3ccc4[nH]ccc4c3)c3c(N)ncnc32)C1` (configuration not stated), the EC50 on TGF-beta receptor type-1 [1] was determined as 689 nM.
Take `Nc1ncnc2c1c(-c1ccc3[nH]ccc3c1)nn2CCC1CCN(S(=O)(=O)c2cccnc2)CC1`: the EC50 at TGF-beta receptor type-1 [1] was greater than 1000 nM.
On the same count and under the same terms, in the case of `CC(=O)N1CCC(CCn2nc(-c3ccc4nccnc4c3)c3c(N)ncnc32)CC1` it was greater than 1000 nM.
Same read-out and setting: in the case of `CC(C)(C)OC(=O)N1CCC(CCn2nc(-c3ccc4[nH]ccc4c3)c3c(N)ncnc32)CC1` it was 441 nM; in that of `CC(C)(C)OC(=O)N1CCC(Cn2nc(-c3ccc4[nH]ccc4c3)c3c(N)ncnc32)CC1`, 374 nM; in that of `COc1ccc(S(=O)(=O)N2CCC(CCn3nc(-c4ccc5[nH]ccc5c4)c4c(N)ncnc43)CC2)c(OC)c1`, greater than 1000 nM.
Turning to `CC(=O)N1CCC(CCn2nc(-c3ccc4[nH]ncc4c3)c3c(N)ncnc32)CC1`, the EC50 on TGF-beta receptor type-1 [1] was found to be 295 nM.
The same measure, in the same setting: in the case of `CC(C)(C)OC(=O)N1CCN(CCn2nc(-c3ccc4[nH]ccc4c3)c3c(N)ncnc32)CC1` it was 488 nM.
Same read-out and setting: in the case of `Nc1ncnc2c1c(-c1ccc3[nH]ccc3c1)nn2CCC1CCN(S(=O)(=O)c2cc(Cl)ccc2Cl)CC1` it was greater than 1000 nM.
For `CC(=O)N1CCC(CCn2nc(-c3ccc4[nH]cc(C)c4c3)c3c(N)ncnc32)CC1`, the EC50 on TGF-beta receptor type-1 [1] is 15.3 nM. The same compound gave an IC50 in data set [2] of 9870 nM.
Turning to `CC(C)(C)c1ccc(S(=O)(=O)N2CCC(CCn3nc(-c4ccc5[nH]ccc5c4)c4c(N)ncnc43)CC2)cc1`, the concentration for a half-maximal effect (EC50) at TGF-beta receptor type-1 [1] was greater than 1000 nM.
As to `CC(=O)N1CCC(CCn2nc(-c3ccc4ncccc4c3)c3c(N)ncnc32)CC1`, the EC50 on TGF-beta receptor type-1 [1] is greater than 1000 nM.
On the same count and under the same terms, in the case of `CC(=O)N1CCC(CCn2nc(-c3ccc4c(ccn4C)c3)c3c(N)ncnc32)CC1` it was 283 nM.
Same read-out and setting: for `CC(=O)N1CCC(CCn2nc(-c3ccc4[nH]c(C)cc4c3)c3c(N)ncnc32)CC1` the value was 105 nM; for `CC(=O)Nc1cccc(-c2nn(CCC3CCN(C(C)=O)CC3)c3ncnc(N)c23)c1`, greater than 1000 nM.
Turning to `CC(=O)N1CCC(CCn2nc(-c3ccc4[nH]ccc4c3)c3c(N)ncnc32)CC1`, the EC50 at TGF-beta receptor type-1 [1] is 29.6 nM. In data set [2], this compound gave an IC50 of 11700 nM.
Regarding `Nc1ncnc2c1c(-c1ccc3[nH]ccc3c1)nn2-c1ccc2cc[nH]c2c1`, the EC50 on TGF-beta receptor type-1 [1] is 525 nM.
Consider `CC(C)(C)C(=O)N1CCC(CCn2nc(-c3ccc4[nH]ccc4c3)c3c(N)ncnc32)CC1`, for which the EC50 at TGF-beta receptor type-1 [1] is 138 nM.
On the same count and under the same terms, for `Nc1ncnc2c1c(-c1ccc3[nH]ccc3c1)nn2CCC1CCN(S(=O)(=O)c2ccc(Cl)cc2Cl)CC1` the value was greater than 1000 nM.
As to `Nc1ncnc2c1c(-c1ccc3[nH]ccc3c1)nn2CCC1CCN(S(=O)(=O)c2ccccc2F)CC1`, the EC50 at TGF-beta receptor type-1 [1] is 339 nM.
In the case of `Cc1cccc(-c2nc(C34CCC(C(N)=O)(CC3)CC4)[nH]c2-c2ccc3c(c2)OCO3)n1`, half-maximal inhibition against TGF-beta receptor type-1 [3] (IC50) was put at 47 nM.
Turning to `Nc1ncnc2c1c(-c1ccc3[nH]ccc3c1)nn2CCC1CCN(S(=O)(=O)c2ccc3ccccc3c2)CC1`, the EC50 at TGF-beta receptor type-1 [1] is 971 nM.
On the same count and under the same terms, for `C#CCCCC(=O)N1CCC(CCn2nc(-c3ccc4[nH]ccc4c3)c3c(N)ncnc32)CC1` the value was 465 nM.
For `CC(C)(C)OC(=O)N1CCC(Cn2nc(-c3ccc4[nH]ccc4c3)c3c(N)ncnc32)C1` (configuration not stated), the IC50 on TGF-beta receptor type-1 [4] came to 155 nM. Further, the EC50 on TGF-beta receptor type-1 [1] is 363 nM.
As for `Cc1ccc(S(=O)(=O)N2CCC(CCn3nc(-c4ccc5[nH]ccc5c4)c4c(N)ncnc43)CC2)cc1`, the EC50 on TGF-beta receptor type-1 [1] turned out to be 348 nM.
With `Nc1ncnc2c1c(-c1ccc3[nH]ccc3c1)nn2CCC1CCN(S(=O)(=O)c2cccc(Cl)c2Cl)CC1`, the EC50 on TGF-beta receptor type-1 [1] was 848 nM.
On the same count and under the same terms, for `Nc1ncnc2c1c(-c1ccc3[nH]ccc3c1)nn2CCC1CCN(S(=O)(=O)C2CC2)CC1` the value was 105 nM.
Same read-out and setting: in the case of `CCCS(=O)(=O)N1CCC(CCn2nc(-c3ccc4[nH]ccc4c3)c3c(N)ncnc32)CC1` it was 45.9 nM.
On the same count and under the same terms, for `CC(=O)N1CCC(CCn2nc(-c3ccc4ncsc4c3)c3c(N)ncnc32)CC1` the value was 130 nM; for `CC(C)(C)OC(=O)N1CCC(CCCn2nc(-c3ccc4[nH]ccc4c3)c3c(N)ncnc32)CC1`, 998 nM; for `CC(=O)c1nn(CCC2CCN(C(C)=O)CC2)c2ncnc(N)c12`, 485 nM.
Consider `CC(=O)N1CCC(CCn2nc(-c3ccc(N)cc3C)c3c(N)ncnc32)CC1`, for which the EC50 on TGF-beta receptor type-1 [1] amounted to 302 nM.
Same read-out and setting: in the case of `Nc1ncnc2c1c(-c1ccc3[nH]ccc3c1)nn2CCC1CCN(S(=O)(=O)c2cc(F)cc(F)c2)CC1` it was greater than 1000 nM.
Still for that read-out and setting: for `COc1ccc(S(=O)(=O)N2CCC(CCn3nc(-c4ccc5[nH]ccc5c4)c4c(N)ncnc43)CC2)cc1` the value was 132 nM; for `COc1ccccc1C(=O)N1CCC(CCn2nc(-c3ccc4[nH]ccc4c3)c3c(N)ncnc32)CC1`, 665 nM; for `Nc1ncnc2c1c(-c1ccc3[nH]ccc3c1)nn2CCC1CCN(S(=O)(=O)c2cccc(Cl)c2)CC1`, 1320 nM.
Turning to `Nc1ncnc2c1c(-c1ccc3[nH]ccc3c1)nn2CCC1CCN(S(=O)(=O)c2ccc(C(F)(F)F)cc2)CC1`, the EC50 on TGF-beta receptor type-1 [1] came out at 303 nM.
On the same count and under the same terms, for `Nc1ncnc2c1c(-c1ccc3[nH]ccc3c1)nn2CCC1CCN(C(=O)c2ccccc2)CC1` the value was 273 nM; for `CC(=O)N1CCC(CCn2nc(-c3cc4cc[nH]c4cc3C)c3c(N)ncnc32)CC1`, 403 nM; for `Nc1ncnc2c1c(-c1ccc3[nH]ccc3c1)nn2CCC1CCN(C(=O)OCc2ccccc2)CC1`, greater than 1000 nM.
Still for that read-out and setting: in the case of `CC(=O)N1CCC(CCn2nc(-c3ccc4cc[nH]c4c3)c3c(N)ncnc32)CC1` it was greater than 1000 nM; in that of `COc1cc(F)cc(-c2nn(CCC3CCN(C(C)=O)CC3)c3ncnc(N)c23)c1`, 430 nM; in that of `CC(C)(C)OC(=O)N1CC(Cn2nc(-c3ccc4[nH]ccc4c3)c3c(N)ncnc32)C1`, 750 nM.
As to `CC(=O)N1CCC(CCn2nc(-c3coc4ccccc34)c3c(N)ncnc32)CC1`, the EC50 on TGF-beta receptor type-1 [1] is 682 nM.
Same read-out and setting: in the case of `Nc1ncnc2c1c(-c1ccc3[nH]ccc3c1)nn2CCC1CCN(S(=O)(=O)c2ccccc2Cl)CC1` it was 856 nM.
Turning to `Cc1cccc(-c2nn3c(c2-c2ccnc4ccc(C(N)=O)cc24)CCC3)n1` [GALUNISERTIB], the CC50 is greater than 20000 nM with Panc02; greater than 20000 nM in the data set with PANC-1; greater than 20000 nM in the data set on 4T1; greater than 20000 nM with MDA-MB-231; 5460 nM in the data set on HepG2; 17000 nM in the data set on U-251. Besides, the CC50 in the data set on Kasumi 1 was 3120 nM; with MV4-11 it was greater than 20000 nM. Further, the CC50 at 72 h in the data set “in vitro [5]” was 19900 nM; in the data set “in vitro [6]”, 13000 nM; in the data set “in vitro [7]”, greater than 20000 nM; in the data set “in vitro [8]”, 17400 nM.
